Data reported in paper PMC5520492, “Inhibition of DNA2 nuclease as a therapeutic strategy targeting replication stress in cancer cells” (Oncogenesis, 2017).

Assays:
Assay type in all cases: cell-based, human
[1] = test system: U2OS cells; assay: RPA phosphorylation after camptothecin (immunofluorescence, chromatin fractionation); conditions: NSC-105808 2 h, 0.3 μM; CPT 2 h, 1 μM
Protocol: Figure 4 NSC-105808 inhibits HR repair and DSB end resection. (a) Analysis of HR efficiency with the DR-green fluorescent protein (GFP) assay. Representative images of flow cytometry analysis and bar graph showing percentage of GFP cells from at least three independent experiments. Each value represents the mean±s.d. (b, c) Analysis of RPA phosphorylation in U2OS cells treated with NSC-105808 (2 h, 0.3 μM) and/or camptothecin (CPT; 2 h, 1 μM). (b) Representative images of cells subjected to immunofluorescent staining of p-RPA and bar graph showing percentage of cells with positive p-RPA staining from three independent experiments. Each value represents the mean±s.d. (c) Western blot analysis of chromatin fraction with the indicated antibodies. (d) Analysis of colony formation by FANCD2 (+/+) and FANCD2 (−/−) cells treated with cisplatin and/or NSC-105808. Each value is relative to the untreated control group of each cell line. The graph represents the mean±s.e.m. from three independent experiments. *P<0.01.
For the detection of DNA damage-induced p-RPA34 (S4/S8), immunofluorescent staining, and the preparation of chromatin fractions and western blot analyses were performed as described previously.[33], [48]

[2] = test system: AsPC-1, PANC-1 versus DT-PD59 cells; assay: MTT proliferation, pancreatic cell lines; conditions: 48-h treatment
Protocol: (§1) Figure 5 Oncogene induction enhances sensitivity of cancer cells to NSC-105808. (a-e) Graphs showing proliferation of indicated cell lines in response to a 48-h treatment with the indicated concentrations of NSC-105808. Proliferation relative to cells treated with vehicle alone was determined by the 3-(4,5-dimethylthiazol-2-yl)-2,5-diphenyltetrazolium bromide (MTT) assay. Each value represents the mean±s.e.m. from three independent experiments. (a) Proliferation of control pancreatic epithelial cells DT-PD59 and transformed pancreatic cancer cells AsPC-1 and PANC-1. (b) Proliferation of normal breast epithelial cells MCF10A and breast cancer cells Hs578T and BT549. (c) Proliferation of MCF10A cells with or without H-Ras expression. H-Ras was induced with doxycycline (2 μg/ml). […]
(§2) Cell proliferation was measured by 3-(4,5-dimethylthiazol-2-yl)-2,5-diphenyltetrazolium bromide (Sigma) reduction (Supplementary Materials and Methods).
(§3) To determine the cell proliferation rate, 1000 cells/well were seeded in a 96-well plate in a total volume of 100 µl in triplicate in each experiment. […] Plates were read at 490 nm and 650 nm (background) in a
(§4) microplate reader (Molecular Devices). After the subtraction of background, cell viability was calculated as fold change relative to control cells.

[3] = test system: DT-PD77 cells with E6/E7 oncoprotein versus DT-PD59; assay: MTT proliferation, DT-PD59 versus E6/E7 DT-PD77; conditions: 48-h treatment
Protocol: as §1, §2, §3, §4

[4] = test system: MCF10A cells with inducible H-Ras expression; assay: MTT proliferation, MCF10A with inducible H-Ras; conditions: 48-h treatment, doxycycline induction
Protocol: as §1, §2, §3, §4

NC1=C(Br)C(=O)c2ncccc2C1=O [NSC-105808, 6-amino-7-bromoquinoline-5,8-dione]
Accumulation of camptothecin-induced p-RPA [1]: significantly attenuated
γ-H2AX level in chromatin fraction [1]: concomitant enhancement
Sensitivity of transformed pancreatic cancer cell lines compared with non-transformed DT-PD59 [2]: more sensitive
Sensitivity in cells with E6/E7 oncoprotein-induced replication stress [3]: higher
Sensitivity upon activation of H-Ras [4]: increased sensitivity
